Reference: patent US9187480B2, “Peripherally restricted diphenyl purine derivatives” (RESEARCH TRIANGLE INSTITUTE, priority 2012, dated 2015)

Assays:
[1] = target: T1, CB1 (Homo sapiens (Human), UniProt P21554); assay: CB1 activated Gαq16-coupled intracellular calcium mobilization assay in CHO-K1 cells; type: cell-based; conditions: apparent affinity (Ke)
[2] = target: T1, CB1; assay: Radioligand displacement of [3H]SR141716 at CB1; type: binding; conditions: radioligand [3H]SR141716; read-out: Ki (nM) v. [3H]SR141716 at CB1
[3] = target: CB2 (Homo sapiens (Human), UniProt P34972); assay: Displacement of [3H]CP55940 in membranes of CHO-K1 cells over-expressing CB2; type: binding; conditions: radioligand [3H]CP55940, CHO-K1 membranes; read-out: Ki (nM) v. [3H]CP55940 at CB2
[4] = test system: MDCK-MDR; assay: MDCK-MDR transport (apical to basal); type: in vitro ADME
[5] = target: T1, CB1; assay: Displacement of [3H]CP55940 in membranes of CHO-K1 cells over-expressing CB1;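 on all read-outs here: reported values are averages of 3-6 independent measurements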; conditions: for Binding Selectivity using CP55940 Displacement: CB1 versus CB2; for Ki: read-out: Ki (nM) v. [3H]CP55940 at CB1, radioligand [3H]CP55940, CHO-K1 membranes
Procedure: Further characterization of select compounds was performed using radioligand displacement of [3H]1 and equilibrium dissociation constant (Ki) values were determined. Selectivity of these compounds at CB1 versus CB2 was also determined by obtaining Ki values at either receptor using displacement of [3H]CP55940 in membranes of CHO-K1 cells over-expressing either receptor. Data reported are average values from 3-6 measurements.
Selectivity against the CB2 receptor was determined by comparing the compound displacement of radiolabeled CP55940, which is a cannabinoid known to act as a full agonist at both CB1 and CB2 receptors.

[6] = Brain penetration / plasma and brain levels after oral dosing in SD rats; type: in vivo, Sprague-Dawley (SD) rats; conditions: Sprague-Dawley, rat, oral 10 mg/kg
Procedure: However, unlike otenabant, this sulfonamide is a peripherally selective compound. […] Select compounds were chosen for study to determine penetration into the CNS. Selected compounds were dosed orally at 10 mg/kg in SD rats. Brain and plasma samples were collected at 1, 2, 4, and 24 hours post dose and samples were analyzed by MS (Table 2, below). Since unperfused brains were used and the blood volume in unperfused brains is approximately 4%, a brain to plasma level of ≦0.04 represents no discernible penetration into the CNS.

T1 sequence (P21554 whole entry): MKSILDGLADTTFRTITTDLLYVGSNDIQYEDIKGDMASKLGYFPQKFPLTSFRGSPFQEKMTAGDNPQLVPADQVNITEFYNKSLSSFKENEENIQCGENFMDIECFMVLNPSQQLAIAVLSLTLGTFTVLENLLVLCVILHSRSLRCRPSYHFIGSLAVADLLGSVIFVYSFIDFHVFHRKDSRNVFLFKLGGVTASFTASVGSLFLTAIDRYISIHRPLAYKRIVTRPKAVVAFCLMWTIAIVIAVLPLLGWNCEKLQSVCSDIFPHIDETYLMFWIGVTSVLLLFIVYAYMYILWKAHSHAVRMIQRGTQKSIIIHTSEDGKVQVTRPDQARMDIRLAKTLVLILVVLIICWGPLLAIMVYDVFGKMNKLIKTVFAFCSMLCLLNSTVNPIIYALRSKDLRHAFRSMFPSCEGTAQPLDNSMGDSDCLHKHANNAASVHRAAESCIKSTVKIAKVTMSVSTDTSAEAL
Chain of CB2 (P34972 whole entry): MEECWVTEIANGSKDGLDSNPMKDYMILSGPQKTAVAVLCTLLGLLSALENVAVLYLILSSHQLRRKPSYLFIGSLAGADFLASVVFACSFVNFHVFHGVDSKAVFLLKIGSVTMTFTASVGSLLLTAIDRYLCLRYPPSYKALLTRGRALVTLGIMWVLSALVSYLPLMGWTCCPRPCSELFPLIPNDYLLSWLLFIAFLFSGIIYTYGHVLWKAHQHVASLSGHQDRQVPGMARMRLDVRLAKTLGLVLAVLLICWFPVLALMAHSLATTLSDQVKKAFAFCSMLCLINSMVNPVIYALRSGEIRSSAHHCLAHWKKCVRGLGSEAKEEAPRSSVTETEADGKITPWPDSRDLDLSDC

SMILES | Ke (nM) at CB1 [1] [nM] | Ki [2] [nM] | Ki [3] [nM] | % MDCK-MDR transport (Apical to Basal) [4] [%] | Binding Selectivity using CP55940 Displacement [5] | Ki [5] [nM] | Kp ([6]; brain and plasma, range over sampling times, read-out: brain to plasma ratios) | Cmax ([6]; in vivo) [ng/g]
NC(=O)C1(c2ccccc2)CCN(c2ncnc3c2nc(-c2ccccc2Cl)n3-c2ccc(Cl)cc2)CC1 | 9 | 0.28 | 5510 | 5.6 ± 2.4 | 3076.5 | 1.79 |  | 
CS(=O)(=O)NCC1CCC(CNc2ncnc3c2nc(-c2ccccc2Cl)n3-c2ccc(Cl)cc2)CC1 (stereo not shown) | 201.00 | 44.5 | 2230 | >50 | 8.6 | 258 |  | 
NS(=O)(=O)NCC1CCC(CNc2ncnc3c2nc(-c2ccccc2Cl)n3-c2ccc(Cl)cc2)CC1 (stereo not shown) | 549.0 | 94.5 | 10700 |  | 30.2 | 355 |  | 
O=S1(=O)CCN(c2ncnc3c2nc(-c2ccccc2Cl)n3-c2ccc(Cl)cc2)CC1 [4-[8-(2-Chlorophenyl)-9-(4-chlorophenyl)-9H-purin-6-yl]-1λ^6,4-thiomorpholine-1,1-dione] | 159.00 | 16.8 | 834 |  | 26.0 | 32.1 |  | 
CS(=O)(=O)NC1(c2ccccc2)CCN(c2ncnc3c2nc(-c2ccccc2Cl)n3-c2ccc(Cl)cc2)CC1 [N-{1-[8-(2-Chlorophenyl)-9-(4-chlorophenyl)-9H-purin-6-yl]-4-phenylpiperidin-4-yl}methanesulfonamide] |  |  | 948 | <1 | 153 | 6.21 | 0.05 to 0.11 | 1650
